Paper PMC8565515, “Dasabuvir Inhibits Human Norovirus Infection in Human Intestinal Enteroids” (mSphere, 2021)
Structures can show the parent of a compound that is named as a salt. Where two headings read alike, the source gives them in different places.

Columns and labels:
GII.4 HuNoV = GII.4 HuNoV infection of HIE monolayers, viral genome equivalents by RT-qPCR; assay type: cell-based, human norovirus; conditions: compound 10 μM, n = 1, J2 HIE monolayers, GII.4 HuNoV, 24 hpi, normalized to DMSO control; for activity at 10 µM: Norovirus, 24 h, read-out: (%) HuNoV GEs

Structure (SMILES): CC1(C)S[C@@H]2[C@H](NC(=O)[C@H](N)c3ccccc3)C(=O)N2[C@H]1C(=O)O [Ampicillin Trihydrate]
- activity at 10 µM (GII.4 HuNoV): 100%
- (%) Cytotoxicity (J2 HIE monolayers; human, 24 h, 10 μM): 1.14%

Structure (SMILES): O=c1[nH]c(=O)n([C@H]2C[C@H](O)[C@@H](CO)O2)cc1I [Dendrid]
- activity at 10 µM (GII.4 HuNoV): 67.3%
- (%) Cytotoxicity (J2 HIE monolayers; human, 24 h, 10 μM): -0.36%

Structure (SMILES): CC(=O)OCC(=O)[C@@]1(O)CC[C@H]2[C@@H]3CCC4=CC(=O)C=C[C@]4(C)[C@@]3(Cl)[C@@H](Cl)C[C@@]21C [Dichlorisone Acetate]
- activity at 10 µM (GII.4 HuNoV): 59.1%
- (%) Cytotoxicity (J2 HIE monolayers; human, 24 h, 10 μM): -1.58%

Structure (SMILES): Clc1ccc(C(Cn2ccnc2)OCc2ccsc2Cl)c(Cl)c1 (stereo not drawn) [Vagistat]
- activity at 10 µM (GII.4 HuNoV): 28.3%
- (%) Cytotoxicity (J2 HIE monolayers; human, 24 h, 10 μM): 3.16%

Structure (SMILES): CO/N=C(\C(=O)N[C@@H]1C(=O)N2C(C(=O)O)=C(C[N+]3(C)CCCC3)CS[C@H]12)c1csc(N)n1 [Cefepime Dihydrochloride Monohydrate]
- activity at 10 µM (GII.4 HuNoV): 116%
- (%) Cytotoxicity (J2 HIE monolayers; human, 24 h, 10 μM): 3.73%

Structure (SMILES): COc1cc(NC(=O)Nc2cccc(CNC(=O)O[C@H]3CCOC3)c2)ccc1-c1cnco1 [Merimepodib]
- activity at 10 µM (GII.4 HuNoV): 17%
- (%) Cytotoxicity (J2 HIE monolayers; human, 24 h, 10 μM): 0.74%

Structure (SMILES): O=c1[nH]cc(F)c(=O)[nH]1 [Fluorouracil]
- activity at 10 µM (GII.4 HuNoV): 27.4%
- (%) Cytotoxicity (J2 HIE monolayers; human, 24 h, 10 μM): -0.47%

Structure (SMILES): Cc1cn([C@@H]2C[C@@H](O)[C@H](CO)O2)c(=O)[nH]c1=O [Telbivudine]
- activity at 10 µM (GII.4 HuNoV): 70.2%
- (%) Cytotoxicity (J2 HIE monolayers; human, 24 h, 10 μM): -0.33%

Structure (SMILES): O=C(O)c1cc(=O)[nH]c(=O)[nH]1 [Orotic acid]
- activity at 10 µM (GII.4 HuNoV): 52.6%
- (%) Cytotoxicity (J2 HIE monolayers; human, 24 h, 10 μM): 0.45%

Structure (SMILES): O=C1c2cccc(O)c2C(=O)c2c(O)cc(CO)cc21 [Aloe-emodin]
- activity at 10 µM (GII.4 HuNoV): 253%
- (%) Cytotoxicity (J2 HIE monolayers; human, 24 h, 10 μM): 0.59%

Structure (SMILES): COC(=O)N[C@H](C(=O)N[C@@H](Cc1ccccc1)[C@@H](O)CN(Cc1ccc(-c2ccccn2)cc1)NC(=O)[C@@H](NC(=O)OC)C(C)(C)C)C(C)(C)C [Atazanavir]
- activity at 10 µM (GII.4 HuNoV): 66.4%
- (%) Cytotoxicity (J2 HIE monolayers; human, 24 h, 10 μM): 0.72%

Structure (SMILES): CC(=O)Oc1ccccc1C(=O)Nc1ncc([N+](=O)[O-])s1 [Nitazoxanide]
- activity at 10 µM (GII.4 HuNoV): 44.5%
- (%) Cytotoxicity (J2 HIE monolayers; human, 24 h, 10 μM): 4.63%

Structure (SMILES): CC(C)c1nc(CN(C)C(=O)N[C@H](C(=O)N[C@@H](Cc2ccccc2)C[C@H](O)[C@H](Cc2ccccc2)NC(=O)OCc2cncs2)C(C)C)cs1 [Ritonavir]
- activity at 10 µM (GII.4 HuNoV): 52.7%
- (%) Cytotoxicity (J2 HIE monolayers; human, 24 h, 10 μM): 1.11%

Structure (SMILES): O=C1Nc2ccc(Cl)cc2[C@@](C#CC2CC2)(C(F)(F)F)O1 [Efavirenz]
- activity at 10 µM (GII.4 HuNoV): 135%
- (%) Cytotoxicity (J2 HIE monolayers; human, 24 h, 10 μM): 1.69%

Structure (SMILES): CCc1nn(CC(=O)NCCCN(CC)CC)c(=O)c2cc3sc(C)cc3n12 [C795-0720]
- (%) HuNoV GEs (GII.4 HuNoV): 100.75%
- (%) Cytotoxicity (J2 HIE monolayers): 0.72%

Structure (SMILES): Nc1ccn([C@H]2CC[C@@H](CO)O2)c(=O)n1 [Zalcitabine]
- activity at 10 µM (GII.4 HuNoV): 71.5%
- (%) Cytotoxicity (J2 HIE monolayers; human, 24 h, 10 μM): 2.88%

Structure (SMILES): CN(C)[C@@H]1C(O)=C(C(N)=O)C(=O)[C@@]2(O)C(O)=C3C(=O)c4c(O)cccc4[C@@](C)(O)[C@H]3[C@H](O)[C@@H]12 [Oxytetracycline]
- activity at 10 µM (GII.4 HuNoV): 46.2%
- (%) Cytotoxicity (J2 HIE monolayers; human, 24 h, 10 μM): 3.05%

Structure (SMILES): CC(=O)OCC(CCn1cnc2cnc(N)nc21)COC(C)=O [Famciclovir]
- activity at 10 µM (GII.4 HuNoV): 27.3%
- (%) Cytotoxicity (J2 HIE monolayers; human, 24 h, 10 μM): 0.72%

Structure (SMILES): COC(=O)N[C@H](C(=O)N1CCC[C@H]1c1nc(-c2ccc(-c3ccc(-c4c[nH]c([C@@H]5CCCN5C(=O)[C@@H](NC(=O)OC)C(C)C)n4)cc3)cc2)c[nH]1)C(C)C [Daclatasvir dihydrochloride]
- activity at 10 µM (GII.4 HuNoV): 178%
- (%) Cytotoxicity (J2 HIE monolayers; human, 24 h, 10 μM): 5.28%

Structure (SMILES): Clc1ccc(COC(Cn2ccnc2)c2ccc(Cl)cc2Cl)cc1 (stereo not drawn) [Econazole]
- activity at 10 µM (GII.4 HuNoV): 95.8%
- (%) Cytotoxicity (J2 HIE monolayers; human, 24 h, 10 μM): 7.35%

Structure (SMILES): CCC[C@H](NC(=O)[C@@H]1[C@H]2CCC[C@H]2CN1C(=O)[C@@H](NC(=O)[C@@H](NC(=O)c1cnccn1)C1CCCCC1)C(C)(C)C)C(=O)C(=O)NC1CC1 [Telaprevir]
- activity at 10 µM (GII.4 HuNoV): 53.2%
- (%) Cytotoxicity (J2 HIE monolayers; human, 24 h, 10 μM): 0.86%

Structure (SMILES): O=C(/C=C/c1ccc(O)cc1)c1ccc(O)cc1O [Isoliquiritigenin]
- activity at 10 µM (GII.4 HuNoV): 172%
- (%) Cytotoxicity (J2 HIE monolayers; human, 24 h, 10 μM): 0.86%

Structure (SMILES): COC1=C2C[C@@H](C)C[C@H](OC)[C@H](O)[C@@H](C)/C=C(\C)[C@H](OC(N)=O)[C@@H](OC)/C=C\C=C(/C)C(=O)NC(=CC1=O)C2=O [Geldanamycin]
- activity at 10 µM (GII.4 HuNoV): 18.6%
- (%) Cytotoxicity (J2 HIE monolayers; human, 24 h, 10 μM): 67.53%

Structure (SMILES): Nc1nc(O)c2ncn(COC(CO)CO)c2n1 [Ganciclovir]
- activity at 10 µM (GII.4 HuNoV): 117%
- (%) Cytotoxicity (J2 HIE monolayers; human, 24 h, 10 μM): 3.59%

Structure (SMILES): OC[C@H]1O[C@@H](O[C@@H]2OC=C[C@H]3[C@H](O)[C@@H]4O[C@]4(CO)[C@@H]23)[C@H](O)[C@@H](O)[C@@H]1O [Catalpol]
- activity at 10 µM (GII.4 HuNoV): 104%
- (%) Cytotoxicity (J2 HIE monolayers; human, 24 h, 10 μM): 3.07%

Structure (SMILES): C=CC1=C(C(=O)O)N2C(=O)[C@@H](NC(=O)/C(=N\O)c3csc(N)n3)[C@H]2SC1 [Cefdinir]
- activity at 10 µM (GII.4 HuNoV): 118%
- (%) Cytotoxicity (J2 HIE monolayers; human, 24 h, 10 μM): 2.33%

Structure (SMILES): O=c1[nH]c(=O)n([C@H]2C[C@H](O)[C@@H](CO)O2)cc1C(F)(F)F [Trifluridine]
- activity at 10 µM (GII.4 HuNoV): 77.1%
- (%) Cytotoxicity (J2 HIE monolayers; human, 24 h, 10 μM): 0.46%

Structure (SMILES): CO[C@H]1/C=C/O[C@@]2(C)Oc3c(C)c(O)c4c(O)c(c(/C=N/N5CCN(C)CC5)c(O)c4c3C2=O)NC(=O)/C(C)=C\C=C\[C@H](C)[C@H](O)[C@@H](C)[C@@H](O)[C@@H](C)[C@H](OC(C)=O)[C@@H]1C [Rifampicin]
- activity at 10 µM (GII.4 HuNoV): 60.2%
- (%) Cytotoxicity (J2 HIE monolayers; human, 24 h, 10 μM): 2.64%

Structure (SMILES): CC(C)[C@H](N)C(=O)OCCOCn1cnc2c(=O)[nH]c(N)nc21 [Valacyclovir hydrochloride]
- activity at 10 µM (GII.4 HuNoV): 22.4%
- (%) Cytotoxicity (J2 HIE monolayers; human, 24 h, 10 μM): 0.09%

Structure (SMILES): NCCCNCCCCNCCCN [Spermine]
- activity at 10 µM (GII.4 HuNoV): 116%
- (%) Cytotoxicity (J2 HIE monolayers; human, 24 h, 10 μM): 2.77%

Structure (SMILES): Clc1ccc(COC(Cn2ccnc2)c2ccc(Cl)cc2Cl)c(Cl)c1 (stereo not drawn) [Miconazole]
- activity at 10 µM (GII.4 HuNoV): 76.8%
- (%) Cytotoxicity (J2 HIE monolayers; human, 24 h, 10 μM): 25.21%

Structure (SMILES): CCOCc1nc2c(N)nc3ccccc3c2n1CC(C)(C)O [Resiquimod]
- activity at 10 µM (GII.4 HuNoV): 76.7%
- (%) Cytotoxicity (J2 HIE monolayers; human, 24 h, 10 μM): 2.61%

Structure (SMILES): COc1ncnc(NS(=O)(=O)c2ccc(N)cc2)c1OC [Sulfadoxine]
- activity at 10 µM (GII.4 HuNoV): 50%
- (%) Cytotoxicity (J2 HIE monolayers; human, 24 h, 10 μM): 2.36%

Structure (SMILES): Cc1c(O)cccc1C(=O)N[C@@H](CSc1ccccc1)[C@H](O)CN1C[C@H]2CCCC[C@H]2C[C@H]1C(=O)NC(C)(C)C [Nelfinavir Mesylate]
- activity at 10 µM (GII.4 HuNoV): 39.7%
- (%) Cytotoxicity (J2 HIE monolayers; human, 24 h, 10 μM): 4.06%

Structure (SMILES): C[C@H](Cn1cnc2c(N)ncnc21)OCP(=O)(O)O [Tenofovir]
- activity at 10 µM (GII.4 HuNoV): 56.5%
- (%) Cytotoxicity (J2 HIE monolayers; human, 24 h, 10 μM): 0.98%

Structure (SMILES): CC(=O)N(CC(O)CO)c1c(I)c(C(=O)NCC(O)CO)c(I)c(C(=O)NCC(O)CO)c1I (stereo not drawn) [Iohexol]
- activity at 10 µM (GII.4 HuNoV): 55.3%
- (%) Cytotoxicity (J2 HIE monolayers; human, 24 h, 10 μM): 1.11%

Structure (SMILES): CO/N=C(\C(=O)N[C@@H]1C(=O)N2C(C(=O)O)=C(COC(C)=O)CS[C@H]12)c1csc(N)n1 [Cefotaxime sodium]
- activity at 10 µM (GII.4 HuNoV): 10.1%
- (%) Cytotoxicity (J2 HIE monolayers; human, 24 h, 10 μM): 0.51%

Structure (SMILES): Cc1cccc(C)c1N(CC(=O)Nc1ccc(-c2ncon2)cc1)C(=O)C1CCS(=O)(=O)CC1 [Amenamevir]
- activity at 10 µM (GII.4 HuNoV): 61.7%
- (%) Cytotoxicity (J2 HIE monolayers; human, 24 h, 10 μM): 0.09%

Structure (SMILES): O=C(O)c1ccccc1C(=O)Nc1ccc(S(=O)(=O)Nc2nccs2)cc1 [Phthalylsulfathiazole]
- activity at 10 µM (GII.4 HuNoV): 44%
- (%) Cytotoxicity (J2 HIE monolayers; human, 24 h, 10 μM): 2.05%

Structure (SMILES): Nc1ccn([C@@H]2CS[C@H](CO)O2)c(=O)n1 [Lamivudine]
- activity at 10 µM (GII.4 HuNoV): 118%
- (%) Cytotoxicity (J2 HIE monolayers; human, 24 h, 10 μM): 0.86%

Structure (SMILES): O=c1[nH]cnc2c1ncn2[C@H]1CC[C@@H](CO)O1 [Didanosine]
- activity at 10 µM (GII.4 HuNoV): 52.8%
- (%) Cytotoxicity (J2 HIE monolayers; human, 24 h, 10 μM): -0.0652%

Structure (SMILES): CCS(=O)(=O)CCn1c([N+](=O)[O-])cnc1C [Tinidazole]
- activity at 10 µM (GII.4 HuNoV): 41%
- (%) Cytotoxicity (J2 HIE monolayers; human, 24 h, 10 μM): -0.09%
